Source: US11541083B2, “Methods and probiotic compositions for the treatment of bone disorders” (Research Development Foundation, priority 2018, dated 2023)

Test system: ovariectomized mice
Assay: 3-point bending biomechanical test on femur of ovariectomized mice after single microbe transplantation
Type: in vivo
Description: Animals: All C57BL/6J mice were purchased from Janvier Labs, and kept in a specific pathogen-free (SPF) facility in individually ventilated cages. All the mice were in a 12 h day/night cycle and fed a standard chow diet (16.2 MJ/kg Gross Energy; 9 kJ % Fat, 33 kJ % Protein, 58 kJ % Carbohydrates, V1534-727, Ssniff, Germany). All the mice were either male and entered the experiment at 8 weeks of age, or female starting at 16 weeks of age (for the ovariectomy experiment). Acclimatized animals were allocated into groups based on their body weight to ensure equal starting points. Warmth exposure was done at 34° C. in a light and humidity-controlled climatic chamber (TSE, Germany) in SPF conditions using individually ventilated cages All mice were sacrificed after 5 h fasting. Bone samples for CT-scan and biomecanics analysis were stored in a humid package at −20° C. All animal experiments were approved by the Swiss federal and Geneva cantonal authorities for animal experimentation (Office Vétérinaire Fédéral and Commission Cantonale pour les Expériences sur les animaux de Genève).
Ovariectomy: Mice were anesthetised with Xylazin/Ketamin (injection of 120 μl of a mixture of 120 mg/kg ketamine and 16 mg/kg xylazine) and shaved below the ribs on the back side. Betadine was applied to the area for appropriate disinfection. After a 1-2 cm incision through the skin and the muscle layer just below the ribs, the ovary was localized, the fallopian tube ligated with dissolving suture and the ovary removed. […]
Biomechanical analysis of the bones: We used a 3-points bending test to measure biomechanical parameters of the bone. […] Mechanical resistance to failure (displacement and load applied) was measured using a servo-controlled electromechanical system (Instron 1114, Instron corp., High Wycombe, UK) with actuator displaced at 2 mm/minute. Ultimate force (maximal load, measured in Newtons [N]), Yield point (N), stiffness (elastic energy, N/mm), and energy to fracture (surface under the curve of the plastic region, N*mm) were calculated. Young's modulus (MPa) was determined.

[1] = gavage every second day for 2 month, starting 3 days post-surgery

Question: Which “increased displacement (post-yield displacement), femur” value [1] does the source give for Lactobacillus reuteri here?
Answer: reduce or prevent

Question: What about the “reduction in ultimate force (ultimate strength), femur” value [1] of the same substance?
Answer: reduce or prevent the reduction

Question: What about the “bone fragility induced by ovariectomy” value (legend of FIGS. 7A-C, overall statement) of the same substance?
Answer: can reduce or prevent
